Consider 21 compounds from patent US9944666B2, “Compounds that are S1P modulating agents and/or ATX modulating agents” (BIOGEN MA INC., priority 2012, dated 2018).

As usually defined, the IC50 is the concentration needed to halve the response being measured. High values mean a need for much substance, low ones inhibition by little substance.

The target in the test is T1, Human ATX protein (Homo sapiens, UniProt Q13822).
T1 construct: made in house
The experiment in a line: ATX biochemical FRET assay with FS-3 substrate. The settings on record: FS-3 2 μM, ATX 1.0 μg/mL, room temperature 2 hours, fluorescence 485/538 nm. From the text: ATX (Autotaxin) is a 125 KDa glycoprotein with lysophospholipase D (LPLD) activity that generates the bioactive lipid lysophosphatidic acid (LPA) from lysophosphatidylcholine (LPC). The ATX biochemical assay utilizes a FRET (fluorescence resonance energy transfer) technology platform. The fluorescence signal of FRET substrate FS-3 is quenched due to intra-molecular FRET of a fluorophore to a non-fluorescing quencher (Ferguson, C. G., et al., Org Lett. 2006 May 11; 8(10): 2023-2026, which is incorporated by reference in its entirety). ATX catalyzes the hydrolysis of the substrate which separates the dabsyl quencher from the fluorescein reporter, which becomes fluorescent. The reaction is monitored by a SpectraMax M5 (Molecular Devices, Sunnyvale, Calif.) with at excitation wavelength 485 nm and emission wavelength […].
Fatty acid free-BSA (Sigma A8806): 10 mg/ml, in H2O, stored at 4° C.
2×ATX assay buffer: 100 mM Tris, 280 mM NaCl, 10 mM KCl, 2 mM CaCl2, 2 mM MgCl2, pH 7.4.
Human ATX protein: expressed and purified in house. Stored at −80° C.
Substrate FS-3 (Echelon, L-2000): 100 μg in 77.74 μL H2O (1 mM stock), stored at −20° C.
384-well flat bottom plates—Corning #3575.
Compound dilution—All compounds were provided at 10 mM in 100% DMSO. In the first well, 2 μL of 10 mM compound was added to 78 μL of DMSO (1:40 dilution). In subsequent wells 3-fold dilution (total 10 dilutions) were performed.
1×ATX assay buffer was made up with a final concentration of 1 mg/mL fatty acid free-BSA using 2×ATX assay buffer, 10 mg/ml fatty acid free-BSA and ddH2O.
ATX protein was diluted with 1×ATX assay buffer to a concentration of 1.32 μg/mL (1.32×). 38 μL was added per well to the assay plate. The final concentration of ATX in the reaction as 1.0 μg/mL.
2 μL per well of compounds was transferred to provide the desired concentration. The plate was centrifuged, then incubated at room temperature for 30 minutes on the shaker.
FS-3 was diluted with 1×ATX assay buffer to a concentration of FS-3 of 10 μM (5×). Then, 10 μL was added per well to the assay plate. The final concentration of FS-3 in the reaction was 2 μM. The plate was centrifuged. The plate was kept shaking at room temperature for 2 hours. Because FS-3 substrate is light sensitive, plates were kept covered and protected from light.
Fluorescence was measured using SpectraMax M5 (excitation at 485 nm/emission at 538 nm, top read).
Turning to `O=C(O)C1CC2CCC(C1)N2C(=O)Cc1ccc2c(C(F)(F)F)c(O[C@H]3CC[C@@H](C(F)(F)F)CC3)ccc2c1` (relative stereo) [Example 117, 2-(2-(5-(trifluoromethyl)-6-((cis-4-(trifluoromethyl)cyclohexyl)oxy)naphthalene-2-yl)acetyl)-2-azabicyclo[1.2.3]octane-7-carboxylic acid], the IC50 was no more than 500 nM.
Compound `CC(c1ccc2c(C(F)(F)F)c(O[C@H]3CC[C@@H](C(F)(F)F)CC3)ccc2c1)N1C2CCC1CC(C(=O)O)C2` (relative stereo) [Example 122, 8-(1-(5-(trifluoromethyl)-6-((cis-4-(trifluoromethyl)cyclohexyl)oxy)-naphthalene-2-yl)ethyl)-8-azabicyclo[3.2.1]octane-3-carboxylic acid] displayed an IC50 of no more than 100 nM.
In the case of `CC1(C)C2CCC1(C(=O)O)C(NCc1ccc3c(C(F)(F)F)c(O[C@H]4CC[C@@H](C(F)(F)F)CC4)ccc3c1)C2` (relative stereo) [Example 123, 3-(((5-(trifluoromethyl)-6-((cis-4-(trifluoromethyl)cyclohexyl)oxy)naphthalen-2-yl)methyl)amino)-7,7-dimethylbicyclo[2.2.1]heptane-4-carboxylic acid] it was no more than 500 nM; in that of `CC(c1ccc2c(C(F)(F)F)c(O[C@H]3CC[C@@H](C)CC3)ccc2c1)N1C2CCC1CC(C(=O)O)C2` (relative stereo) [Example 124, 8-(1-(6-((cis-4-Methylcyclohexyl)oxy)-5-(trifluoromethyl)naphthalen-2-yl)ethyl)-8-azabicyclo[3.2.1]octane-3-carboxylic acid], no more than 100 nM; in that of `C[C@H]1CC[C@@H](Oc2ccc3cc(C(=O)N4C5CCCC4CC(C(=O)O)C5)ccc3c2C(F)(F)F)CC1` (relative stereo) [Example 125, 9-(6-((cis-4-Methylcyclohexyl)oxy)-5-(trifluoromethyl)-2-naphthoyl)-9-azabicyclo[3.3.1]nonane-3-carboxylic acid], no more than 250 nM.
The compound `C[C@H]1CC[C@@H](Oc2ccc3cc(CN4C5COCC4CC(C(=O)O)C5)ccc3c2C(F)(F)F)CC1` (relative stereo) [Example 126, 9-((6-((cis-4-Methylcyclohexyl)oxy)-5-(trifluoromethyl)naphthalen-2-yl)methyl)-9-aza-7-oxa-bicyclo[3.3.1]nonane-3-carboxylic acid] showed an IC50 of no more than 250 nM.
Regarding `CCC(c1ccc2c(C(F)(F)F)c(O[C@H]3CC[C@@H](C)CC3)ccc2c1)N1C2CCC1CC(C(=O)O)C2` (relative stereo) [Example 127, 8-(1-(6-((cis-4-Methylcyclohexyl)oxy)-5-(trifluoromethyl)naphthalen-2-yl)propyl)-8-azabicyclo[3.2.1]octane-3-carboxylic acid], the IC50 is no more than 100 nM.
Compound `CCC(c1ccc2c(C(F)(F)F)c(O[C@H]3CC[C@@H](C)CC3)ccc2c1)N1C2CCCC1CC(C(=O)O)C2` (relative stereo) [Example 128, 9-(1-(6-((cis-4-Methylcyclohexyl)oxy)-5-(trifluoromethyl)naphthalen-2-yl)propyl)-9-azabicyclo[3.3.1]nonane-3-carboxylic acid] returned an IC50 of no more than 100 nM.
`C[C@H]1CC[C@@H](Oc2ccc3cc(CN4C5CC(O)CC4CC(C(=O)O)C5)ccc3c2C(F)(F)F)CC1` (relative stereo) [Example 129, 9-((6-((cis-4-Methylcyclohexyl)oxy)-5-(trifluoromethyl)naphthalen-2-yl)methyl)-7-hydroxy-9-aza-bicyclo[3.3.1]nonane-3-carboxylic acid]: the IC50 is no more than 500 nM.
For `CC(c1ccc2c(C(F)F)c(O[C@H]3CC[C@@H](C)CC3)ccc2c1)N1C2CCCC1CC(C(=O)O)C2` (relative stereo) [Example 132, 9-(1-(5-(difluoromethyl)-6-((cis-4-methylcyclohexyl)oxy)naphthalen-2-yl)ethyl)-9-azabicyclo[3.3.1]nonane-3-carboxylic acid], the 50% inhibitory concentration (IC50) is no more than 100 nM.
With `CC(c1ccc2c(C(F)F)c(O[C@H]3CC[C@@H](C)CC3)ccc2c1)N1C2CCC1CC(C(=O)O)C2` (relative stereo) [Example 133, 8-(1-(5-(difluoromethyl)-6-((cis-4-methylcyclohexyl)oxy)naphthalen-2-yl)ethyl)-8-azabicyclo[3.2.1]octane-3-carboxylic acid] the figure was no more than 100 nM; with `C[C@H]1CC[C@@H](Oc2ccc3cc(CN4C5CCC4CC(C(=O)O)C5)ccc3c2C(F)F)CC1` (relative stereo) [Example 134, 8-(1-(5-(difluoromethyl)-6-((cis-4-methylcyclohexyl)oxy)naphthalen-2-yl)methyl)-8-azabicyclo[3.2.1]octane-3-carboxylic acid], no more than 100 nM; with `CCC(c1ccc2c(C(F)F)c(O[C@H]3CC[C@@H](C)CC3)ccc2c1)N1C2CCCC1CC(C(=O)O)C2` (relative stereo) [Example 135, 9-(1-(5-(difluoromethyl)-6-((cis-4-methylcyclohexyl)oxy)naphthalen-2-yl)propyl)-9-azabicyclo[3.3.1]nonane-3-carboxylic acid], no more than 100 nM.
In the case of `O=C(O)C1CC12CN(Cc1ccc3c(C(F)(F)F)c(O[C@H]4CC[C@@H](C(F)(F)F)CC4)ccc3c1)C2` (relative stereo) [Example 149, 2-((5-(trifluoromethyl)-6-((cis-4-(trifluoromethyl)cyclohexyl)oxy)naphthalen-2-yl)methyl)-2-azaspiro[3.2]hexane-5-carboxylic acid] it was no more than 250 nM; in that of `O=C(O)C1CCCC2CCN(Cc3ccc4c(C(F)(F)F)c(O[C@H]5CC[C@@H](C(F)(F)F)CC5)ccc4c3)CC21` (relative stereo) [Example 150, N-((5-(trifluoromethyl)-6-((cis-4-(trifluoromethyl)cyclohexyl)oxy)naphthalen-2-yl)methyl)-decahydroisoquinoline-8-carboxylic acid], no more than 250 nM; in that of `O=C(O)C1CCCC(C2CN(Cc3ccc4c(C(F)(F)F)c(O[C@H]5CC[C@@H](C(F)(F)F)CC5)ccc4c3)C2)C1` (relative stereo) [Example 159, N-(5-trifluoromethyl-6-(cis-4-trifluoromethyl-cyclohexyloxy)-naphthalen-2-ylmethyl)-3-(azetidine-3-yl)-cyclohexane-1-carboxylic acid], no more than 500 nM.
With `O=C(O)C1CC2CCC1N2Cc1ccc2c(C(F)(F)F)c(O[C@H]3CC[C@@H](C(F)(F)F)CC3)ccc2c1` (relative stereo) [Example 165, 7-(5-trifluoromethyl-6-(cis-4-trifluoromethyl-cyclohexyloxy)-naphthalen-2-ylmethyl)-7-azabicyclo[2.2.1]heptane-2-carboxylic acid] the figure was no more than 250 nM.
Compound `O=C(O)C1CC2CC(O)CC(C1)N2Cc1ccc2c(C(F)(F)F)c(O[C@H]3CC[C@@H](C(F)(F)F)CC3)ccc2c1` (relative stereo) [Example 169, 9-(5-trifluoromethyl-6-(cis-4-trifluoromethyl-cyclohexyloxy)-naphthalen-2-ylmethyl)-7-hydroxy-9-azabicyclo[3.3.1]nonane-3-carboxylic acid] displayed an IC50 of no more than 500 nM.
In the case of `O=C1CC2CC(C(=O)O)CC(C1)N2Cc1ccc2c(C(F)(F)F)c(O[C@H]3CC[C@@H](C(F)(F)F)CC3)ccc2c1` (relative stereo) [Example 170, 9-(5-trifluoromethyl-6-(cis-4-trifluoromethyl-cyclohexyloxy)-naphthalen-2-ylmethyl)-7-oxo-9-azabicyclo[3.3.1]nonane-3-carboxylic acid] it was no more than 500 nM; in that of `CC[C@H]1CC[C@@H](Oc2ccc3cc(CN4C5CCCC4CC(C(=O)O)C5)ccc3c2C(F)(F)F)CC1` (relative stereo) [Example 171, 9-((6-((cis-4-ethylcyclohexyl)oxy)-5-(trifluoromethyl)naphthalen-2-yl)methyl)-9-azabicyclo[3.3.1]nonane-3-carboxylic acid], no more than 100 nM; in that of `CC[C@H]1CC[C@@H](Oc2ccc3cc(CN4C5CCC4CC(C(=O)O)C5)ccc3c2C(F)(F)F)CC1` (relative stereo) [Example 172, 8-((6-((cis-4-ethylcyclohexyl)oxy)-5-(trifluoromethyl)naphthalen-2-yl)methyl)-8-azabicyclo[3.2.1]octane-3-carboxylic acid], no more than 250 nM.
